Measured values reported in patent publication US20210308028A1, “Compositions and Methods for Maintaining and Protecting Tissue Integrity and Barrier Function” (Colgate-Palmolive Company, priority 2020, published 2021).

What was measured:
[1] = tested on: B11 gingival keratinocytes treated with TNF-α; assay: FITC-dextran paracellular transport with TNF-α challenge; type: cell-based, human; settings: Example 5, FIGS. 25, 28, 31, 32; S1: the two higher percentages
Experimental: The ability of test composition samples to enhance epithelial barrier integrity was assessed by monitoring the paracellular transport of FITC-conjugated 4.4-kDa dextran (FD-4; Sigma-Aldrich Canada Ltd.) across the keratinocyte layer. Briefly, B11 cells were cultured on Transwell filters, and FD-4 ([…] in culture medium) was added in the apical compartment in the presence of the test composition under investigation. Fluorescence in the basolateral compartment was measured at 0, 4, 8, 24, and 48 h using a Synergy 2 microplate reader (BioTek Instrument, Winooski, Vt., USA).
(§1) Assays exposed cells to either TNFα only or TNFα+test composition. TNFα is known to cause tissue damage. A stock solution of recombinant TNF-α is prepared in sterile distilled water at 100 μg/ml. Thereafter, dilutions are made in keratinocyte culture medium. First dilution is 1/1000 to obtain 100 ng/ml. TNF-α and the test compounds are added simultaneously.
Gingival keratinocytes were cultured in the apical chamber of Transwell™ inserts as described above. Immediately after adding fluorescein isothiocyanate-conjugated dextran of 4.4 kDa (FD-4; 1 mg/ml in culture medium) to the apical compartment, the formulations under investigation were added in presence of recombinant TNF-α (100 ng/ml). Fluorescence in the basolateral compartment was recorded after 0, 2, 6, 24, and 48 h of incubation using a Synergy 2 microplate reader (BioTek Instruments; Winooski, Vt., USA).

[2] = tested on: B11 gingival keratinocytes treated with TNF-α; assay: TER with TNF-α challenge; type: cell-based, human; settings: Example 5, FIGS. 24, 27, 29, 30
Experimental: (§2) Tight junction integrity was assessed by determining the trans-epithelial electrical resistance (TER). B11 gingival keratinocytes were seeded onto Costar™ Transwell™ clear polyester membrane inserts (6.5-mm diameter; 0.4-μm pore size; Corning Co., Cambridge, Mass., USA) at 3×10^5 cells per insert. The basolateral and apical compartments were filled with 0.6 mL and 0.1 mL of complete K-SFM, respectively. Following a 72-h incubation, the conditioned medium was replaced with antibiotic-free K-SFM, and the cells were incubated for a further 16 h. The TER values were measured using an Ohm/voltmeter (EVOM2; World Precision Instruments, Sarasota, Fla., USA) at 0, 4, 8, 24, 48, and 72 h. Resistance values were calculated in Ohms (Ω)/cm 2 by multiplying the resistance values by the filter surface area. Results were expressed as percentage of the basal control values measured at time 0 h (100% values) for each condition.
as §1
Keratinocyte barrier integrity was determined by monitoring transepithelial electrical resistance (TER). Briefly, keratinocytes (3×10^5 cells per insert; 0.1 ml) were seeded in the apical compartment of Costar™ Transwell™ clear polyester membrane inserts (6.5 mm in diameter, 0.4 μm pore size; Corning Co., Cambridge, Mass., USA), while the basolateral compartment was filled with 0.6 ml of culture medium. After 72-h of incubation, the conditioned culture medium was replaced with fresh antibiotic-free K-SFM, and the cells were further incubated for 16 h prior treating the cells. Recombinant human TNF-α (100 ng/ml; AnaSpec, Fremont, USA) and the formulations (final dilutions of 1/500, 1/1000, and 1/2000 (v/v for the aqueous solution; w/v for the dentifrice) under investigation were added to the apical compartment. The TER values were monitored using an ohm/voltmeter (EVOM^2; World Precision Instruments, Sarasota, Fla., USA) after 0, 6, 24, and 48 h of incubation. The TER values in Ohms (Ω)/cm^2 were determined by multiplying the resistance values by the surface area of the membrane filter. Results are expressed as the percentage of the basal control value measured at time 0-h (100% value).

[3] = tested on: hemolytic activity of P. gingivalis; assay: Hemolytic assay with sheep red blood cells; type: cell-based, Porphyromonas gingivalis; settings: Example 6, FIGS. 37, 40, 43; red blood cells from sheep
Experimental: A hemolytic assay is performed as follows. Fresh sheep red blood cells (Nutri-Bact, Terrebonne, QC, Canada) were harvested from heparinized whole blood by centrifugation (600×g for 5 min), washed three times in phosphate-buffered saline (PBS; pH 7.0), and suspended in PBS to a concentration of 2% (v/v). Equal volumes (1 mL) of red blood cells, P. gingivalis cells (OD660=1.0 in PBS), and two-fold serial dilutions of the Test composition were mixed together. PBS replaced the bacteria in the negative control. Following an incubation at 37° C. for 4 h, the mixtures were incubated at 4° C. for 1 h and were then centrifuged (10 000×g for 5 min) prior to recording the absorbance of the supernatants at 540 nm (A540). 1 ml P. gingivalis+1 ml of red blood cells+1 ml of test compounds used in the hemolysis assay are incubated at 37° C. for to 4 h. All constituents are added at the same time. […]
Fresh sheep red blood cells (Nutri-B act, Terrebonne, QC, Canada) were harvested from heparinized whole blood by centrifugation (600×g for 5 min), washed three times in phosphate-buffered saline (PBS; pH 7.0), and suspended in PBS to a concentration of 2% (v/v). […] Following an incubation at 37° C. for 4 h, the mixtures were incubated at 4° C. for 1 h and were then centrifuged (10 000×g for 5 min) prior to recording the absorbance of the supernatants at 540 nm (A540).

P. gingivalis = P. gingivalis invasion / translocation through keratinocyte layer; type: cell-based, Porphyromonas gingivalis; settings: Example 6, FIGS. 36, 39, 42
Experimental: Assays were performed to determine the extent formulations can inhibit and reduce invasion of cell monolayer by P. gingivalis.
The basolateral and apical compartments were filled with 0.235 mL and 0.075 mL of K-SFM, respectively. Following a 48-h incubation, the conditioned medium was replaced with antibiotic-free K-SFM. To determine the ability of P. gingivalis to penetrate the keratinocyte layer, FITC-labeled bacteria suspended in antibiotic-free K-SFM were added to the apical compartment of the double-chamber system at an MOI of 10^4. […] To evaluate the effect of the Dual Zinc plus Arginine aqueous solution and dentifrice on the invasive capacity of P. gingivalis, the keratinocyte layer was co-incubated with them and the bacteria. The translocation of FITC-labeled bacteria through the keratinocyte barrier was monitored using a Synergy 2 microplate reader by measuring the fluorescence (RUF; excitation wavelength 495 nm; emission wavelength 525 nm) in the medium recovered from the lower chamber following a 24-h incubation in an anaerobic chamber at 37° C.

[4] = tested on: occludin and zonula occludens-1 in TNF-α-treated gingival keratinocytes; assay: Immunofluorescence of tight junction proteins with TNF-α challenge; type: cell-based, human; settings: Example 5, FIGS. 26, 33, 34
Experimental: Gingival keratinocytes treated as described above for 12 h were immunostained for zonula occludens-1 and occludin, two tight junction proteins. Briefly, the cells were fixed in 50 mM phosphate-buffered saline (pH 7.2) (PBS) containing 4% paraformaldhehyde for 20 min, permeabilized with 0.1% Triton X-100 for 10 min, and blocked in 3% non-fat milk in 20 mM Tris-HCl (pH 8), 150 mM NaCl, and 0.5% Tween 20 for 40 min. […] After washing with PBS, the cells were then treated with ProLong® Diamond antifade (Life Technologies). The slides were sealed with nail polish and were kept in the dark at 4° C. The localization of tight junction proteins in B11 cells was visualized using an Olympus FSX100 fluorescence microscope and FSX-BSW imaging software (Olympus, Tokyo, Japan). Immunofluorescent staining of tight junction proteins is a qualitative assay.
as §1

[5] = tested on: B11 gingival keratinocytes challenged with P. gingivalis; type: cell-based, human; settings: P. gingivalis MOI=10^4; Example 4, FIGS. 15, 18, 21
Experimental: as §2

In the case of [O]=[Zn] [zinc oxide], the “TNFα-induced paracellular permeability to FITC-dextran” value [1] is reported as “protects oral tissue integrity from the deleterious effects caused by the presence of TNFα”, the “TER with TNFα challenge” value [2] is reported as “prevented tissue from the TNFα induced TER decrease” and the “inhibition of hemolytic activity of P. gingivalis” value [3] is reported as “inhibited P. gingivalis hemolysis”. The “invasion of an epithelial cell monolayer by P. gingivalis” value (P. gingivalis) was “inhibits invasion of an epithelial cell monolayer”, the “TNFα induced cell junction disorganization (immunofluorescence)” value [4] was “prevents TNFα induced cell junction disorganization” and the “TER with P. gingivalis challenge” value [5] was “protects tissue integrity from damage by P. gingivalis”.
For O=C([O-])CC(O)(CC(=O)[O-])C(=O)[O-].O=C([O-])CC(O)(CC(=O)[O-])C(=O)[O-].[Zn+2].[Zn+2].[Zn+2] [zinc citrate], the “TNFα-induced paracellular permeability to FITC-dextran” value [1] was “protects oral tissue integrity from the deleterious effects caused by the presence of TNFα”, the “TER with TNFα challenge” value [2] was “can prevent tissue from the TNFα induced TER decrease” and the “inhibition of hemolytic activity of P. gingivalis” value [3] was “inhibited P. gingivalis hemolysis”. The “TER with P. gingivalis challenge” value [5] was “protects tissue integrity from damage by P. gingivalis”.
